The record followed here is patent US11952377B2, “Quinolines and azaquinolines as inhibitors of CD38” (BOEHRINGER INGELHEIM INTERNATIONAL GMBH, priority 2021, dated 2024).

The structures appear in SMILES notation. pIC50: −log10 of the molar value.

The target in this test is Human CD38 (Homo sapiens (Human), UniProt P28907). Nature of the test: CD38 enzyme assay. In kind it is biochemical. The settings on record: 2 nM CD38, 30 min preincubation at 25° C., absorbance at 405 nm after 60 minutes. An excerpt: [formula] where CMPD is the value for the individual compound treated well, MIN is the average of the values of the 4-(((1r,4r)-4-(2-methoxyethoxy)cyclohexyl)amino)-1-methyl-6-(thiazol-5-yl)quinolin-2(1H)-one positive control wells and MAX is the average of the values of the DMSO negative control wells.
Human CD38, sequence (P28907 whole entry): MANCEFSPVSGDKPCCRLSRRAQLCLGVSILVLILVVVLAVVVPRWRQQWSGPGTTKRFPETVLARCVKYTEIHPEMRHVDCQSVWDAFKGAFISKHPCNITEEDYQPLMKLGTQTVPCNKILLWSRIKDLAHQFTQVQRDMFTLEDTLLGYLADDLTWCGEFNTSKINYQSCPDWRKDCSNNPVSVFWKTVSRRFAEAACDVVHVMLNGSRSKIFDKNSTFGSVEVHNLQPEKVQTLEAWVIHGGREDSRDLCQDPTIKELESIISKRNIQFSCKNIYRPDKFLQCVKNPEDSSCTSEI
The % inhibition values were plotted as a function of compound concentration and the following 4-parameter fit was applied to derive the IC50 values:
[formula] where top and bottom are normally allowed to float, but may be fixed at 100 or 0 respectively in a 3-parameter fit. The Hill Coefficient is normally allowed to float but may also be fixed at 1 in a 3-parameter fit. Y is the % inhibition and X is the compound concentration.
Consider `COCCO[C@H]1CC[C@H](Nc2cc(=O)n(C)c3ccc(-n4ccnc4)nc23)CC1` [Example 3, 6-(1H-imidazol-1-yl)-4-(((1r,4r)-4-(2-methoxyethoxy)cyclohexyl)amino)-1-methyl-1,5-naphthyridin-2(1H)-one], for which the negative logarithm of the IC50 (pIC50) is 7.00 to 8.00.
The figure for `CN(C)CCOc1ccc(Nc2cc(=O)n(C)c3ccc(-n4ccnc4)cc23)cn1` [Example 17, 4-((6-(2-(dimethylamino)ethoxy)pyridin-3-yl)amino)-6-(1H-imidazol-1-yl)-1-methylquinolin-2(1H)-one] is 7.00 to 8.00; for `COCCO[C@H]1CC[C@H](Nc2cc(=O)n(C)c3cnc(-n4ccnc4)cc23)CC1` [Example 6, 6-(1H-imidazol-1-yl)-4-(((1r,4r)-4-(2-methoxyethoxy)cyclohexyl)amino)-1-methyl-1,7-naphthyridin-2(1H)-one] it is 7.00 to 8.00; for `Cn1c(=O)cc(NC2CCN(S(C)(=O)=O)CC2)c2cc(-n3ccnc3)ccc21` [Example 13] it is 7.00 to 8.00.
The figure for `Cn1c(=O)cc(N[C@H]2CC[C@H](C3(O)CC3)CC2)c2nc(-n3ccnc3)ncc21` [Example 27, 8-(((1r,4r)-4-(1-hydroxycyclopropyl)cyclohexyl)amino)-2-(1H-imidazol-1-yl)-5-methylpyrido[3,2-d]pyrimidin-6(5H)-one] is greater than 8.00; for `Cn1c(=O)cc(N[C@H]2CC[C@H](NCC(F)(F)F)CC2)c2cc(-n3ccnc3)ccc21` [Example 11, 6-(1H-imidazol-1-yl)-1-methyl-4-(((1r,4r)-4-((2,2,2-trifluoroethyl)amino)cyclohexyl)amino)quinolin-2(1H)-one] it is 7.00 to 8.00.
The compound `CN(C)C(=O)CO[C@H]1CC[C@H](Nc2cc(=O)n(C)c3cnc(-n4ccnc4)nc23)CC1` [Example 21, 2-(((1r,4r)-4-((2-(1H-imidazol-1-yl)-5-methyl-6-oxo-5,6-dihydropyrido[3,2-d]pyrimidin-8-yl)amino)cyclohexyl)oxy)-N,N-dimethylacetamide] showed a pIC50 of 7.00 to 8.00.
Next, `Cn1c(=O)cc(N[C@H]2CC[C@H](C(C)(C)O)CC2)c2cc(-n3ccnc3)ccc21` [Example 12, 4-(((1r,4r)-4-(2-hydroxypropan-2-yl)cyclohexyl)amino)-6-(1H-imidazol-1-yl)-1-methylquinolin-2(1H)-one]: 7.00 to 8.00; `Cn1c(=O)cc(N[C@H]2CC[C@H](C(C)(C)O)CC2)c2nc(-n3ccnc3)ccc21` [Example 4, 4-(((1r,4r)-4-(2-hydroxypropan-2-yl)cyclohexyl)amino)-6-(1H-imidazol-1-yl)-1-methyl-1,5-naphthyridin-2(1H)-one]: 7.00 to 8.00.
Next, `Cn1c(=O)cc(Nc2ccc(OCCN3CCCC3)nc2)c2nc(-n3ccnc3)ncc21` [Example 25]: 7.00 to 8.00; `Cn1c(=O)cc(Nc2ccc(OCC(F)(F)F)nc2)c2cc(-n3ccnc3)ccc21` [Example 15, 6-(1H-imidazol-1-yl)-1-methyl-4-((6-(2,2,2-trifluoroethoxy)pyridin-3-yl)amino)quinolin-2(1H)-one]: 7.00 to 8.00.
The figure for `Cn1c(=O)cc(N[C@H]2CC[C@H](NCC(F)(F)F)CC2)c2nc(-n3ccnc3)ncc21` [Example 23, 2-(1H-imidazol-1-yl)-5-methyl-8-(((1r,4r)-4-((2,2,2-trifluoroethyl)amino)cyclohexyl)amino)pyrido[3,2-d]pyrimidin-6(5H)-one] is greater than 8.00.
The compound `COCCO[C@H]1CC[C@H](Nc2cc(=O)n(C)c3cnc(-n4ccnc4)nc23)CC1` [Example 7, 2-(1H-imidazol-1-yl)-8-(((1r,4r)-4-(2-methoxyethoxy)cyclohexyl)amino)-5-methylpyrido[3,2-d]pyrimidin-6(5H)-one] gave a pIC50 of 7.00 to 8.00.
Next, `Cn1c(=O)cc(N[C@H]2CC[C@H](NC3COC3)CC2)c2cc(-n3ccnc3)ccc21` [Example 2, 6-(1H-imidazol-1-yl)-1-methyl-4-(((1r,4r)-4-(oxetan-3-ylamino)cyclohexyl)amino)quinolin-2(1H)-one]: 7.00 to 8.00.
The figure for `Cn1c(=O)cc(Nc2ccc(C(F)(F)F)cc2)c2nc(-n3ccnc3)ncc21` [Example 9, 2-(1H-imidazol-1-yl)-5-methyl-8-((4-(trifluoromethyl)phenyl)amino)pyrido[3,2-d]pyrimidin-6(5H)-one] is greater than 8.00; for `Cn1c(=O)cc(N[C@H]2CC[C@H](C(C)(C)O)CC2)c2cc(-n3ccnc3)ncc21` [Example 5, 4-(((1r,4r)-4-(2-hydroxypropan-2-yl)cyclohexyl)amino)-6-(1H-imidazol-1-yl)-1-methyl-1,7-naphthyridin-2(1H)-one] it is 7.00 to 8.00.
Regarding `COCCO[C@H]1CC[C@H](Nc2cc(=O)n(C)c3ccc(-n4ccnc4)cc23)CC1` [Example 1, 6-(1H-imidazol-1-yl)-4-(((1r,4r)-4-(2-methoxyethoxy)cyclohexyl)amino)-1-methylquinolin-2(1H)-one], the pIC50 was 7.00 to 8.00.
Next, `Cn1c(=O)cc(N[C@H]2CC[C@H](NCC(C)(F)F)CC2)c2nc(-n3ccnc3)ncc21` [Example 19, 8-(((1r,4r)-4-((2,2-difluoropropyl)amino)cyclohexyl)amino)-2-(1H-imidazol-1-yl)-5-methylpyrido[3,2-d]pyrimidin-6(5H)-one]: greater than 8.00; `CO[C@H]1CC[C@H](Nc2cc(=O)n(C)c3cnc(-n4ccnc4)nc23)CC1` [Example 24, 2-(1H-imidazol-1-yl)-8-(((1r,4r)-4-methoxycyclohexyl)amino)-5-methylpyrido[3,2-d]pyrimidin-6(5H)-one]: greater than 8.00; `Cn1c(=O)cc(Nc2ccc(C#N)cc2)c2nc(-n3ccnc3)ncc21` [Example 22, 4-((2-(1H-imidazol-1-yl)-5-methyl-6-oxo-5,6-dihydropyrido[3,2-d]pyrimidin-8-yl)amino)benzonitrile]: greater than 8.00.
`Cn1c(=O)cc(NC2CCC(F)(F)CC2)c2nc(-n3ccnc3)ncc21` [Example 26, 8-((4,4-difluorocyclohexyl)amino)-2-(1H-imidazol-1-yl)-5-methylpyrido[3,2-d]pyrimidin-6(5H)-one]: the pIC50 is greater than 8.00.
Next, `Cn1c(=O)cc(Nc2ccc(OCCN3CCOCC3)nc2)c2nc(-n3ccnc3)ncc21` [Example 10, 2-(1H-imidazol-1-yl)-5-methyl-8-((6-(2-morpholinoethoxy)pyridin-3-yl)amino)pyrido[3,2-d]pyrimidin-6(5H)-one]: 7.00 to 8.00; `Cn1c(=O)cc(N[C@H]2CC[C@H](OCCN3CCCC3)CC2)c2cc(-n3ccnc3)ccc21` [Example 18, 6-(1H-imidazol-1-yl)-1-methyl-4-(((1r,4r)-4-(2-(pyrrolidin-1-yl)ethoxy)cyclohexyl)amino)quinolin-2(1H)-one]: 7.00 to 8.00; `Cn1c(=O)cc(N[C@H]2CC[C@H](C(C)(C)O)CC2)c2nc(-n3ccnc3)ncc21` [Example 8, 8-(((1r,4r)-4-(2-hydroxypropan-2-yl)cyclohexyl)amino)-2-(1H-imidazol-1-yl)-5-methylpyrido[3,2-d]pyrimidin-6(5H)-one]: greater than 8.00.
The figure for `CN(C)C(=O)CO[C@H]1CC[C@H](Nc2cc(=O)n(C)c3ccc(-n4ccnc4)cc23)CC1` [Example 14, 2-(((1r,4r)-4-((6-(1H-imidazol-1-yl)-1-methyl-2-oxo-1,2-dihydroquinolin-4-yl)amino)cyclohexyl)oxy)-N,N-dimethylacetamide] is 7.00 to 8.00.
